Like-named read-outs stand apart in the source and are kept apart here.
Experiments:
EGFR Del19/T790M/C797S = EGFR Del19/T790M/C797S (Homo sapiens, UniProt P00533, C797S/DEL746-750/T790M); assay: Biochemical EGFR kinase inhibition assay (Lance Ultra TR-FRET), triple mutant del19/T790M/C797S
In short: (§1)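 Kinase activity is measured by TR-FRET phosphopeptide detection. Compounds span 0.003 μM to 10 μM; the 1 h reaction at room temperature is quenched with EDTA, then labelled antibody (2 nM) is incubated 60 min before reading.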

EGFR L858R/T790M/C797S = EGFR L858R/T790M/C797S (Homo sapiens, UniProt P00533, C797S/L858R/T790M); assay: Biochemical EGFR kinase inhibition assay (Lance Ultra TR-FRET), triple mutant L858R/T790M/C797S
EGFR L858R/T790M/C797S, sequence (P00533 25-1210 T790M/C797S/L858R): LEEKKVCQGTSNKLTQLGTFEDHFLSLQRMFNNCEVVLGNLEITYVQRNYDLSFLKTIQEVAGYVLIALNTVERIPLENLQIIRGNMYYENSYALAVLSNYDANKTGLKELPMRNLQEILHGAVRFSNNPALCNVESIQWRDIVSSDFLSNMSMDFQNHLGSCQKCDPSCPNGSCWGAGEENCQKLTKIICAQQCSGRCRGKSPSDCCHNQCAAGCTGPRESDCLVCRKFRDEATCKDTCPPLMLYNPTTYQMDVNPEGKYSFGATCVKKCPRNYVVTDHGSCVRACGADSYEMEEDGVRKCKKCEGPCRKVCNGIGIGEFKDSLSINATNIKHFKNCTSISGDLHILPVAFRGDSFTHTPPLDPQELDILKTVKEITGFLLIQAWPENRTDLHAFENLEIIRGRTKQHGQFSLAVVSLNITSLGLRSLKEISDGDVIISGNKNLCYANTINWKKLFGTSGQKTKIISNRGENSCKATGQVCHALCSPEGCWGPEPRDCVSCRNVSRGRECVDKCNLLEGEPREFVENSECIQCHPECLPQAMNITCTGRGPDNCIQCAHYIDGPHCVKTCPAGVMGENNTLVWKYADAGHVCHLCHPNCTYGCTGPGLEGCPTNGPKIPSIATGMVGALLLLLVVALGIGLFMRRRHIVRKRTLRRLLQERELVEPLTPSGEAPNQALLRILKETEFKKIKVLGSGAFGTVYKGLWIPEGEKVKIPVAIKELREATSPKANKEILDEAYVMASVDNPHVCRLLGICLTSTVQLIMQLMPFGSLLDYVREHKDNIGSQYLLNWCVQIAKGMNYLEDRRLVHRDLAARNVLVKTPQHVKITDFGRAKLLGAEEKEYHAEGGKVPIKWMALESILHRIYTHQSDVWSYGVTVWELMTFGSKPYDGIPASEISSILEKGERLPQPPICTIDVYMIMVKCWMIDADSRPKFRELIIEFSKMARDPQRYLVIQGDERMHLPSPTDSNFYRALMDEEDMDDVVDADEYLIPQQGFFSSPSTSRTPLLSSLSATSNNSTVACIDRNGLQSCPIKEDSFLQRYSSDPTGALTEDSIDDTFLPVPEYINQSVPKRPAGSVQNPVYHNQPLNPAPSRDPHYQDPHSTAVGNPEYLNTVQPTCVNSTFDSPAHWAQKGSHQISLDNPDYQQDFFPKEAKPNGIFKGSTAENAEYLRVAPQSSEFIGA
In short: as §1

EGFR Del19/C797S = EGFR Del19/C797S (Homo sapiens, UniProt P00533, C797S/DEL746-750); assay: Biochemical EGFR kinase inhibition assay (Lance Ultra TR-FRET), double mutant del19/C797S
EGFR Del19/C797S, sequence (P00533 with tags, fused parts or gaps DEL746-750/C797S): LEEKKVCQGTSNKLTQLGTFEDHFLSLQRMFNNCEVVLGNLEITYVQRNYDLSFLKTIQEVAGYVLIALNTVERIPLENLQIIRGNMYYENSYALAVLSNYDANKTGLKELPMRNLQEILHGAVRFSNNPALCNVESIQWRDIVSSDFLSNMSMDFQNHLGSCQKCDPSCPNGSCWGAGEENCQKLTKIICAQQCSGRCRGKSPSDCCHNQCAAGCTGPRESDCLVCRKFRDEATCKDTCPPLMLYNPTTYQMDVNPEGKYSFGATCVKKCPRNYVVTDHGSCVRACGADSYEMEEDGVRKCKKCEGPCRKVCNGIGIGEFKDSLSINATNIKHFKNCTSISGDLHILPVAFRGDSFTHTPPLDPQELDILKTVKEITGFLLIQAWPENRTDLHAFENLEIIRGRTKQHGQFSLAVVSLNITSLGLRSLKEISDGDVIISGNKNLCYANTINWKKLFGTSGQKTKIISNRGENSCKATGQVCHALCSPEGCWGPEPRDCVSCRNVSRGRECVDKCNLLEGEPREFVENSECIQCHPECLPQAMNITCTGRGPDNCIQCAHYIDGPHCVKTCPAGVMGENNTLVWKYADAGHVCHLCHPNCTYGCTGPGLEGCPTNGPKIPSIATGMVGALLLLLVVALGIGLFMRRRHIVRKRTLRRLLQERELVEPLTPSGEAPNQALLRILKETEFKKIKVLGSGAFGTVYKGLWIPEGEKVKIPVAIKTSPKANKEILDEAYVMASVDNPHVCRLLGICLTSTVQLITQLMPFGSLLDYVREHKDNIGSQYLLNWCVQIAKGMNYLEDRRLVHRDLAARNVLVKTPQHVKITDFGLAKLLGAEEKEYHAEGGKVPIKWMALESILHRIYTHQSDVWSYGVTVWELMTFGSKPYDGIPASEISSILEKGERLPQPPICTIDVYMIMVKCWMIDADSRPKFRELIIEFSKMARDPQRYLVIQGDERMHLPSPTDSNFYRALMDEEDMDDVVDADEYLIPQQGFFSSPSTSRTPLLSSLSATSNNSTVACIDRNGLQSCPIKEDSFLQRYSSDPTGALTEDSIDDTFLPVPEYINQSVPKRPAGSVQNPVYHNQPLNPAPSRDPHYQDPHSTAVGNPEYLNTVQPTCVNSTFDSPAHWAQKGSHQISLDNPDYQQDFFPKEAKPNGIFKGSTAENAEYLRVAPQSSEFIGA
In short: as §1

EGFR L858R/C797S = EGFR L858R/C797S (Homo sapiens, UniProt P00533, C797S/L858R); assay: Biochemical EGFR kinase inhibition assay (Lance Ultra TR-FRET), double mutant L858R/C797S
EGFR L858R/C797S, sequence (P00533 25-1210 C797S/L858R): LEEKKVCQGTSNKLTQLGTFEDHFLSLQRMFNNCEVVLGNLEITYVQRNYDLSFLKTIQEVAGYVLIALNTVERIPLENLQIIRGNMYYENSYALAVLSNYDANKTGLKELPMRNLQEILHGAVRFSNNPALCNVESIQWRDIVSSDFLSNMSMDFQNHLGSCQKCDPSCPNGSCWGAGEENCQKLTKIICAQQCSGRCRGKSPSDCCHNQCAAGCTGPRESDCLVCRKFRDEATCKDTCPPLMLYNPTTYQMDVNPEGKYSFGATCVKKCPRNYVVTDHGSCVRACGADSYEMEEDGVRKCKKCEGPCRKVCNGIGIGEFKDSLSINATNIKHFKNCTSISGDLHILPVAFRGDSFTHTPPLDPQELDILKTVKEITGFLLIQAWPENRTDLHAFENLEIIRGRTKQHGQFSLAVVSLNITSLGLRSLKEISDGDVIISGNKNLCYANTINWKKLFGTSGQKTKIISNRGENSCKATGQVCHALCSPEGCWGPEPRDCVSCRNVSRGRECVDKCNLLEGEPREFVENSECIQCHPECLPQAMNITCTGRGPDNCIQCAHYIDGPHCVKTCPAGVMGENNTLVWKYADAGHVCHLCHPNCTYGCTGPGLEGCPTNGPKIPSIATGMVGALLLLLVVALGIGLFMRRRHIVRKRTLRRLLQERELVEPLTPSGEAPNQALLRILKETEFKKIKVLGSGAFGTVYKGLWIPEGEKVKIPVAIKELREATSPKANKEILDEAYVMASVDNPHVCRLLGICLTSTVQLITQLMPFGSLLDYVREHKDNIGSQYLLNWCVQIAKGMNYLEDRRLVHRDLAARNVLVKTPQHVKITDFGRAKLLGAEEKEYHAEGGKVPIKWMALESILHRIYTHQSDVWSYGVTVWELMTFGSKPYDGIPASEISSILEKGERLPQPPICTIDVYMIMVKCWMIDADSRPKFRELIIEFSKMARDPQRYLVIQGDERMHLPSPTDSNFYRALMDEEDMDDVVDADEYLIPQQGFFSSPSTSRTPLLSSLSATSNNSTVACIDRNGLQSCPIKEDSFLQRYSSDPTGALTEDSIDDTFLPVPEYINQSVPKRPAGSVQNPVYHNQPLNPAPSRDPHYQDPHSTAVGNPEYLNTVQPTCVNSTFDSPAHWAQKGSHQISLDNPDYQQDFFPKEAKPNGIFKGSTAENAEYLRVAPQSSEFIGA
In short: as §1

EGFR wildtype (WT) = EGFR wildtype (WT) (Homo sapiens, UniProt P00533); assay: Biochemical EGFR kinase inhibition assay (Lance Ultra TR-FRET), wildtype
EGFR wildtype (WT), sequence (P00533 25-1210): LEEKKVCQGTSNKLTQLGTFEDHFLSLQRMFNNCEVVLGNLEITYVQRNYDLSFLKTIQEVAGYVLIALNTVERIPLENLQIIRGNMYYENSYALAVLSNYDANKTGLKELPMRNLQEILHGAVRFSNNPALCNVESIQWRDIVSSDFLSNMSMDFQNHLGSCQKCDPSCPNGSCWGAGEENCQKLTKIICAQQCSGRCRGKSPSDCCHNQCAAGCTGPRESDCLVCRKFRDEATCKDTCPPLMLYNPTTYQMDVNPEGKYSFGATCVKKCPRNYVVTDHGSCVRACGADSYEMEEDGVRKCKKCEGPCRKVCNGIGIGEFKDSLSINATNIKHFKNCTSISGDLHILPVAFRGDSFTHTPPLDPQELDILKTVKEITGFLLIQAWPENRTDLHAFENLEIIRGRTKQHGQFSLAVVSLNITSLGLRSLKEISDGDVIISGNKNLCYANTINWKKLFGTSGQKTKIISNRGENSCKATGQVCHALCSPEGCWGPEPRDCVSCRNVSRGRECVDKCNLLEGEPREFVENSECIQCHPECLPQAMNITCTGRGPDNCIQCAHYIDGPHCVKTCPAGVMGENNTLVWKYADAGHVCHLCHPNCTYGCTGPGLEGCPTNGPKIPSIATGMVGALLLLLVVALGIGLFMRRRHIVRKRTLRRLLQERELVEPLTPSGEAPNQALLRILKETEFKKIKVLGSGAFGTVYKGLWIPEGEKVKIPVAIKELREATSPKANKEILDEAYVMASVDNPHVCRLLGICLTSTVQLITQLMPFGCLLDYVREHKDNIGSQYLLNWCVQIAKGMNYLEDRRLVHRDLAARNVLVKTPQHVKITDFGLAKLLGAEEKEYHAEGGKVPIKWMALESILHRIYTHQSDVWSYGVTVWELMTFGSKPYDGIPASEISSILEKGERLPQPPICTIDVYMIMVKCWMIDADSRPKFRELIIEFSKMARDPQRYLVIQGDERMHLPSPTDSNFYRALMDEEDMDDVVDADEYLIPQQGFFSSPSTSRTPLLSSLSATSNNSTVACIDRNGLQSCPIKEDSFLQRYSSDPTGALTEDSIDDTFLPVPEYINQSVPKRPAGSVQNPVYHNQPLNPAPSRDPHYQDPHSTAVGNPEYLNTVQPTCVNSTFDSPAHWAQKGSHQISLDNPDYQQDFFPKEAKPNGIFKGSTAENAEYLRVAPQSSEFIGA
In short: as §1

[1] = IC50 Del19/T790M/C797S (nM), 100 μM ATP
[2] = IC50 L858R/T790M/C797S (nM), 100 μM ATP
[3] = IC50 Del19/C797S (nM), 100 μM ATP
[4] = IC50 L858R/C797S (nM), 100 μM ATP
[5] = Km ATP, read-out: IC50 Del19/T790M/C797S (nM), Km ATP
[6] = Km ATP, read-out: IC50 L858R/T790M/C797S (nM), Km ATP
[7] = Km ATP, read-out: IC50 Del19/T790M/C797S (nM) Km ATP
[8] = Km ATP, read-out: IC50 L858R/T790M/C797S (nM) Km ATP
[9] = Km ATP, read-out: IC50 Del19/C797S (nM) Km ATP
[10] = Km ATP, read-out: IC50 L858R/C797S (nM) Km ATP
[11] = Km ATP, read-out: IC50 WT (nM) Km ATP
[12] = ATP at Km, read-out: IC50 Del19/T790M/C797S (nM), Km ATP
[13] = ATP at Km, read-out: IC50 L858R/T790M/C797S (nM), Km ATP
[14] = ATP at Km, read-out: IC50 Del19/C797S (nM), Km ATP
[15] = ATP at Km, read-out: IC50 L858R/C797S (nM), Km ATP
[16] = ATP at Km, read-out: IC50 WT (nM), Km ATP

IC50 (EGFR Del19/T790M/C797S; [1]) | IC50 (EGFR L858R/T790M/C797S; [2]) | IC50 (EGFR Del19/C797S; [3]) | IC50 (EGFR L858R/C797S; [4]) | IC50 (EGFR wildtype (WT); IC50 WT (nM), 100 μM ATP) | IC50 (EGFR Del19/T790M/C797S; [5]) | IC50 (EGFR L858R/T790M/C797S; [6]) | IC50 (EGFR Del19/T790M/C797S; [7]) | IC50 (EGFR L858R/T790M/C797S; [8]) | IC50 (EGFR Del19/C797S; [9]) | IC50 (EGFR L858R/C797S; [10]) | IC50 (EGFR wildtype (WT); [11]) | IC50 (EGFR Del19/T790M/C797S; [12]) | IC50 (EGFR L858R/T790M/C797S; [13]) | IC50 (EGFR Del19/C797S; [14]) | IC50 (EGFR L858R/C797S; [15]) | IC50 (EGFR wildtype (WT); [16]) | IC50 (EGFR Del19/C797S; Km ATP, read-out: IC50 Del19/C797S (nM), Km ATP) | IC50 (EGFR L858R/C797S; Km ATP, read-out: IC50 L858R/C797S (nM), Km ATP) | IC50 (EGFR wildtype (WT); Km ATP, read-out: IC50 WT (nM), Km ATP) | SMILES
1.6 nM | 3.9 nM | 15.6 nM | 65 nM | > 10000 nM | – | – | – | – | – | – | – | – | – | – | – | – | – | – | – | Cn1ncc(C#Cc2cnc(Nc3ccnc(-c4cnn(S(=O)(=O)C5CC5)c4)n3)cc2N[C@H]2CC[C@@H](O)CC2)c1C1CC1 [Example 88, (1s,4s)-4-((5-((5-Cyclopropyl-1-methyl-1H-pyrazol-4-yl)ethynyl)-2-((2-(1-(cyclopropylsulfonyl)-1H-pyrazol-4-yl)pyrimidin-4-yl)amino)pyridin-4-yl)amino)cyclohexan-1-ol]
2.6 nM | 14.5 nM | 28.3 nM | 238 nM | > 10000 nM | – | – | – | – | – | – | – | – | – | – | – | – | – | – | – | O=S(=O)(C1CC1)n1cc(-c2nccc(Nc3cc(N[C@H]4CC[C@@H](O)CC4)c(C#Cc4ccsc4)cn3)n2)cn1 [Example 217, (1s,4s)-4-((2-((2-(1-(Cyclopropylsulfonyl)-1H-pyrazol-4-yl)pyrimidin-4-yl)amino)-5-(thiophen-3-ylethynyl)pyridin-4-yl)amino)cyclohexan-1-ol]
2.7 nM | 4.7 nM | 78.1 nM | 2090 nM | > 10000 nM | 1.2 nM | 1 nM | – | – | – | – | – | – | – | – | – | – | – | – | – | CC1OCCC1C#Cc1cnc(Nc2ccnc(-c3cnn(S(=O)(=O)C4CC4)c3)n2)cc1NCC1CCC(O)CC1 (centres unmarked) [Example 431, (1 r,4r)-4-(((2-((2-(1-(Cyclopropylsulfonyl)-1H-pyrazol-4-yl)pyrimidin-4-yl)amino)-5-((2-methyltetrahydrofuran-3-yl)ethynyl)pyridin-4-yl)amino)methyl)cyclohexan-1-ol]
2.2 nM | 18.2 nM | 64.8 nM | 372 nM | > 10000 nM | – | – | 1.9 nM | 2.5 nM | 43 nM | 18.3 nM | 260 nM | – | – | – | – | – | – | – | – | O=C1CCN(c2cc(Nc3ccnc(-c4cnn(S(=O)(=O)C5CC5)c4)n3)ncc2C#Cc2cnn(C3CCOCC3)c2)CC1 [Example 93, 1-(2-((2-(1-(Cyclopropylsulfonyl)-1H-pyrazol-4-yl)pyrimidin-4-yl)amino)-5-((1-(tetrahydro-2H-pyran-4-yl)-1H-pyrazol-4-yl)ethynyl)pyridin-4-yl)piperidin-4-one]
1.3 nM | 2.5 nM | 4 nM | 24.4 nM | > 10000 nM | – | – | – | – | – | – | – | – | – | – | – | – | – | – | – | O=S(=O)(C1CC1)n1cc(-c2nccc(Nc3cc(N4CCC(CO)CC4)c(C#Cc4cnn(C5CC5(F)F)c4)cn3)n2)cn1 (centres unmarked) [Example 83, (1-(2-((2-(1-(Cyclopropylsulfonyl)-1H-pyrazol-4-yl)pyrimidin-4-yl)amino)-5-((1-(2,2-difluorocyclopropyl)-1H-pyrazol-4-yl)ethynyl)pyridin-4-yl)piperidin-4-yl)methanol]
2.8 nM | 16.9 nM | 50.3 nM | 170 nM | > 10000 nM | – | – | – | – | – | – | – | – | – | – | – | – | – | – | – | Cn1cc(C#Cc2cnc(Nc3ccnc(-c4cnn(S(=O)(=O)C5CC5)c4)n3)cc2N2CCCC(CF)C2)cn1 (centres unmarked) [Example 72, 2-(1-(Cyclopropylsulfonyl)-1H-pyrazol-4-yl)-N-(4-(3-(fluoromethyl)piperidin-1-yl)-5-((1-methyl-1H-pyrazol-4-yl)ethynyl)pyridin-2-yl)pyrimidin-4-amine]
0.6 nM | 0.5 nM | 0.7 nM | 6.6 nM | 1270 nM | – | – | – | – | – | – | – | 0.5 nM | 0.2 nM | 0.4 nM | 0.9 nM | 2.2 nM | – | – | – | CC1(CO)CCN(c2cc(Nc3ccnc(-c4cnn(S(=O)(=O)C5CC5)c4)n3)ncc2C#Cc2ncc(CN3CCOCC3)cn2)CC1 [Example 193, (1-(2-((2-(1-(Cyclopropylsulfonyl)-1H-pyrazol-4-yl)pyrimidin-4-yl)amino)-5-((5-(morpholinomethyl)pyrimidin-2-yl)ethynyl)pyridin-4-yl)-4-methylpiperidin-4-yl)methanol]
– | – | – | – | – | – | – | 5.7 nM | 11.2 nM | 112 nM | 143 nM | 881 nM | – | – | – | – | – | – | – | – | Cn1cc(C#Cc2cnc(Nc3ccnc(-c4cnn(S(=O)(=O)C5CC5)c4)n3)cc2NC2CCCCC2)cn1 [Example 2, N^4-Cyclohexyl-N^2-(2-(1-(cyclopropylsulfonyl)-1H-pyrazol-4-yl)pyrimidin-4-yl)-5-((1-methyl-1H-pyrazol-4-yl)ethynyl)pyridine-2,4-diamine]
8 nM | 14.8 nM | 1840 nM | 7530 nM | > 10000 nM | 5.6 nM | 3.3 nM | – | – | – | – | – | – | – | – | – | – | 239 nM | 136 nM | 276 nM | CC(=O)C1CCN(c2cc(Nc3ccnc(-c4cnn(S(=O)(=O)C5CC5)c4)n3)ncc2C#Cc2cnn(C(F)(F)F)c2)CC1 [Example 334, 1-(1-(2-((2-(1-(Cyclopropylsulfonyl)-1H-pyrazol-4-yl)pyrimidin-4-yl)amino)-5-((1-(trifluoromethyl)-1H-pyrazol-4-yl)ethynyl)pyridin-4-yl)piperidin-4-yl)ethan-1-one]
0.4 nM | 0.3 nM | 0.5 nM | 10.8 nM | 832 nM | – | – | – | – | – | – | – | 0.5 nM | 0.2 nM | 0.3 nM | 1 nM | 2.1 nM | – | – | – | CC1(CO)CCN(c2cc(Nc3ccnc(-c4cnn(S(=O)(=O)C5CC5)c4)n3)ncc2C#Cc2cccnc2)CC1 [Example 260, (1-(2-((2-(1-(Cyclopropylsulfonyl)-1H-pyrazol-4-yl)pyrimidin-4-yl)amino)-5-(pyridin-3-ylethynyl)pyridin-4-yl)-4-methylpiperidin-4-yl)methanol]
0.1 nM | 0.3 nM | 1.6 nM | 8.9 nM | 3190 nM | – | – | – | – | – | – | – | – | – | – | – | – | – | – | – | CC(O)CC#Cc1cnc(Nc2ccnc(-c3cnn(S(=O)(=O)C4CC4)c3)n2)cc1N1CCC(C)(CO)CC1 (centres unmarked) [Example 287, 5-(6-((2-(1-(Cyclopropylsulfonyl)-1H-pyrazol-4-yl)pyrimidin-4-yl)amino)-4-(4-(hydroxymethyl)-4-methylpiperidin-1-yl)pyridin-3-yl)pent-4-yn-2-ol]
0.3 nM | 0.4 nM | 4.2 nM | 18.4 nM | 5990 nM | – | – | – | – | – | – | – | – | – | – | – | – | – | – | – | CN1CCC2(CC1)CCN(c1cc(Nc3ccnc(-c4cnn(S(=O)(=O)C5CC5)c4)n3)ncc1C#Cc1cnn(C)c1)CC2 [Example 318, 2-(1-(Cyclopropylsulfonyl)-1H-pyrazol-4-yl)-N-(5-((1-methyl-1H-pyrazol-4-yl)ethynyl)-4-(9-methyl-3,9-diazaspiro[5.5]undecan-3-yl)pyridin-2-yl)pyrimidin-4-amine]
1.6 nM | 1.8 nM | 5.7 nM | 104 nM | > 10000 nM | – | – | 1.8 nM | 0.8 nM | 3.8 nM | 2.6 nM | 45.6 nM | – | – | – | – | – | – | – | – | Cn1cc(C#Cc2cnc(Nc3ccnc(-c4cnn(S(=O)(=O)C5CC5)c4)n3)cc2N[C@H]2CCC[C@@H](O)C2)cn1 [Example 75, (1R,3S)-3-((2-((2-(1-(Cyclopropylsulfonyl)-1H-pyrazol-4-yl)pyrimidin-4-yl)amino)-5-((1-methyl-1H-pyrazol-4-yl)ethynyl)pyridin-4-yl)amino)cyclohexan-1-ol]
0.7 nM | 0.5 nM | 0.6 nM | 0.6 nM | 111 nM | – | – | – | – | – | – | – | 0.6 nM | 0.1 nM | 0.2 nM | 0.6 nM | 0.6 nM | – | – | – | CN1CCN(Cc2ccc(C#Cc3cnc(Nc4ccnc(-c5cnn(S(=O)(=O)C6CC6)c5)n4)cc3N3CCC(C)(CO)CC3)cn2)CC1 [Example 279, (1-(2-((2-(1-(Cyclopropylsulfonyl)-1H-pyrazol-4-yl)pyrimidin-4-yl)amino)-5-((6-((4-methylpiperazin-1-yl)methyl)pyridin-3-yl)ethynyl)pyridin-4-yl)-4-methylpiperidin-4-yl)methanol]
3.3 nM | 6.7 nM | 7.2 nM | 33 nM | > 10000 nM | – | – | – | – | – | – | – | – | – | – | – | – | – | – | – | O=S(=O)(C1CC1)n1cc(-c2nccc(Nc3cc(N4CCC(CCO)CC4)c(C#Cc4cnn(C5CC5(F)F)c4)cn3)n2)cn1 (centres unmarked) [Example 84, 2-(1-(2-((2-(1-(Cyclopropylsulfonyl)-1H-pyrazol-4-yl)pyrimidin-4-yl)amino)-5-((1-(2,2-difluorocyclopropyl)-1H-pyrazol-4-yl)ethynyl)pyridin-4-yl)piperidin-4-yl)ethan-1-ol]
